The record followed here is US20210284668A1, “GOLD (I)-PHOSPHINE 1,2,3-TRIAZOLE DERIVATIVES WITH ANTIBIOTIC PROPERTIES” (Centre National de la Recherche Scientifique, priority 2018, published 2021).

In assay [1] the test system is Clostridium difficile ATCC700057. Put plainly: MIC by microdilution, Clostridium difficile. In kind it is cell-based. Particulars: strain ATCC70057 [sic] (Tables 1-2) / ATCC700057 (Tables 3-10), in duplicate. A general note: Broth dilution looks for growth in wells or tubes with falling amounts of substance.
Assay [2] relates to S. aureus ATCC29213. The experiment in a line: MIC by microdilution, S. aureus ATCC29213. In kind it is cell-based, Staphylococcus aureus. Particulars: S. aureus ATCC29213 (MecA negative, wild-type), Mueller-Hinton broth, in duplicate. Put shortly:
(§1)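 Broth microdilution per CLSI document M07-A10, Mueller-Hinton medium, each MIC run in duplicate. Strains include E. coli ATCC25922 (wild-type), S. epidermidis ATCC35984 (MecA positive) and S. aureus ATCC700699 (MecA positive, glycopeptide resistant), within a mixed panel of susceptible and resistant Gram-positive/Gram-negative bacteria.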

Assay [3] deals with E. faecalis UCN41. Put plainly: MIC by microdilution, E. faecalis UCN41. Type of assay: cell-based, Enterococcus faecalis. The conditions noted are these: E. faecalis UCN41 (VanA positive, glycopeptide resistant), in duplicate. On the set-up: unit not given here. The method, boiled down:
as §1

Assay [4] deals with S. epidermidis ATCC35984. Put plainly: MIC by microdilution, S. epidermidis ATCC35984. The conditions noted are these: S. epidermidis ATCC35984 (MecA positive), in duplicate. Type of assay: cell-based, Staphylococcus epidermidis. Put shortly: (§2)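 MICs determined in duplicate by CLSI broth microdilution (M07-A10) in Mueller-Hinton broth. S. aureus ATCC700699: MecA positive, glycopeptide resistant; S. epidermidis ATCC35984: MecA positive; E. coli ATCC25922: wild-type. Panel spans Gram-positive and Gram-negative strains from wild-type to multi-drug resistant.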

Assay [5] concerns E. coli ATCC25922. Put plainly: MIC by microdilution, E. coli ATCC25922. The conditions noted are these: E. coli ATCC25922 (wild-type), in duplicate. In kind it is cell-based, Escherichia coli. The method, boiled down:
as §2

In assay [6] the test system is panel of Gram-positive and Gram-negative strains. Put plainly: Antibacterial profile on the selected panel of strains. Particulars: summary of Tables 1-12. In kind it is cell-based. Put shortly: as §2
Assay [7] deals with E. faecalis JH2-2. Put plainly: MIC by microdilution, E. faecalis JH2-2. In kind it is cell-based, Enterococcus faecalis. The conditions noted are these: E. faecalis JH2-2 (wild-type), in duplicate. Details: unit not given here. Put shortly:
as §1

Assay [8] relates to E. faecium BM4147. Put plainly: MIC by microdilution, E. faecium BM4147. Type of assay: cell-based, Enterococcus faecium. On the set-up: unit not given here. The conditions noted are these: E. faecium BM4147 (VanA positive, glycopeptide resistant), in duplicate. The method, boiled down:
as §1

Assay [9] has as its system S. epidermidis ATCC14990. Put plainly: MIC by microdilution, S. epidermidis ATCC14990. In kind it is cell-based, Staphylococcus epidermidis. The conditions noted are these: S. epidermidis ATCC14990 (MecA negative, wild-type), in duplicate. Put shortly: as §2
In assay [10] the test system is S. aureus ATCC25923. The experiment in a line: MIC by microdilution, S. aureus ATCC25923. Particulars: S. aureus ATCC25923 (MecA negative, wild-type), Mueller-Hinton broth, in duplicate. In kind it is cell-based, Staphylococcus aureus. The method, boiled down:
as §1

In assay [11] the test system is S. aureus ATCC700699. The experiment in a line: MIC by microdilution, S. aureus ATCC700699. Particulars: S. aureus ATCC700699 (MecA positive, glycopeptide resistant), in duplicate. On the set-up: unit not given here. Type of assay: cell-based, Staphylococcus aureus. Put shortly:
as §2

Assay [12] concerns S. epidermidis ST20150446. Put plainly: MIC by microdilution, S. epidermidis ST20150446. Type of assay: cell-based, Staphylococcus epidermidis. Particulars: S. epidermidis ST20150446 (MecA positive, glycopeptide resistant), in duplicate. Put shortly:
as §1

In assay [13] the test system is S. epidermidis ST20140436. Put plainly: MIC by microdilution, S. epidermidis ST20140436. Type of assay: cell-based, Staphylococcus epidermidis. The conditions noted are these: S. epidermidis ST20140436 (MecA positive, glycopeptide resistant), in duplicate. The method, boiled down:
as §1

The test system of assay [14] is E. faecalis V583. The experiment in a line: MIC by microdilution, E. faecalis V583. Type of assay: cell-based, Enterococcus faecalis. The conditions noted are these: E. faecalis V583 (VanB positive, glycopeptide resistant), in duplicate. The method, boiled down: as §2
Assay [15] relates to S. aureus ST20131365. Put plainly: MIC by microdilution, S. aureus ST20131365. Type of assay: cell-based, Staphylococcus aureus. Particulars: S. aureus ST20131365 (MecA positive, glycopeptide resistant), in duplicate. Put shortly: as §2
The test system of assay [16] is E. faecium ATCC19434T. The experiment in a line: MIC by microdilution, E. faecium ATCC19434T. The conditions noted are these: E. faecium ATCC19434T (wild-type), in duplicate. On the set-up: unit not given here. In kind it is cell-based, Enterococcus faecium. The method, boiled down: as §1
In assay [17] the test system is E. faecium AUS0004. The experiment in a line: MIC by microdilution, E. faecium AUS0004. Type of assay: cell-based, Enterococcus faecium. The conditions noted are these: E. faecium AUS0004 (VanB positive, glycopeptide resistant), in duplicate. Put shortly: as §1

Several values for one entry are separate records, joined by “and”; a condition that tells them apart may be missing. Identical values can stand only once.

On to `CC[P+](CC)(CC)[Au-][c]1nn[nH]c1COC(=O)NC(C(=O)NC)c1ccccc1` (stereo not drawn) [TMB8], for which the “Minimal Inhibitory Concentration (MIC)” value in [1] was ≤0.06-0.125; in assay [2], 0.25; in assay [3], 1 and 2; in assay [4], ≤0.06; in [5], >8; in [7], 1. In addition, the “Minimal Inhibitory Concentration (MIC)” value is 2 in assay [8]; ≤0.06 in [9]; 0.25 in assay [10]; 0.25 and 0.5 in assay [11]; 0.125 in [12]; 0.125 in [13]. The “Minimal Inhibitory Concentration (MIC)” value is 2 in [14]; 0.25 and 0.5 in assay [15]; 1 and 2 in assay [16]; 2 in assay [17]. Also, the “antimicrobial / antibacterial activity (in words)” value in assay [6] is listed as “have antimicrobial activity”.

`CC1(C)S[C@@H]2[C@H](NC(=O)[C@H](NC(=O)CCc3cn(Cc4ccccc4)nn3)c3ccccc3)C(=O)N2[C@H]1C(=O)O` [TMB9]: the “Minimal Inhibitory Concentration (MIC)” value in assay [1] is 2-4; in assay [2], 1; in [3] it was 8; in assay [4] it was >8; in assay [5], >8; in assay [7] it was 2. Also, the “Minimal Inhibitory Concentration (MIC)” value was >8 in [8]; 1 in [9]; 1 in assay [10]; >8 in [11]; 8/>8 in [12]; 8 in [13]. The “Minimal Inhibitory Concentration (MIC)” value in assay [14] is given as 4; in [15], >8; in [16], 8; in [17], >8. Also, the “antimicrobial / antibacterial activity (in words)” value in [6] is recorded as “do not show an antibacterial activity”.

`CC[P+](CC)(CC)[Au-][c]1nn[nH]c1-c1cccc(C(=O)O)c1` [TMB13]: the “Minimal Inhibitory Concentration (MIC)” value was ≤0.06 in assay [1]; 0.125 and 0.25 in [2]; 1 and 2 in [3]; ≤0.06 in [4]; >8 in [5]; 1 and 2 in [7]. Further, the “Minimal Inhibitory Concentration (MIC)” value in assay [8] is 2; in assay [9] it was ≤0.06; in [10], 0.125; in assay [11], 0.25; in [12], ≤0.06; in assay [13], ≤0.06. Moreover, the “Minimal Inhibitory Concentration (MIC)” value in assay [14] was 1 and 2; in assay [15], 0.25; in [16], 0.5; in [17], 1 and 2. In assay [6], the “antimicrobial / antibacterial activity (in words)” value is listed as “have antimicrobial activity”.

For `CC[P+](CC)(CC)[Au-][c]1nn[nH]c1COC(=O)NC(C(=O)OC(C)(C)C)c1ccccc1` (stereo not drawn) [TMB15], the “Minimal Inhibitory Concentration (MIC)” value was 0.125 and 0.25 in assay [1]; 0.5 in [2]; 2 in assay [3]; ≤0.06 in assay [4]; >8 in [5]; 2 in assay [7]. Further, the “Minimal Inhibitory Concentration (MIC)” value was 4 in assay [8]; ≤0.06 in assay [9]; 0.25 and 0.5 in assay [10]; 0.5 in assay [11]; 0.125 and 0.25 in assay [12]; 0.125 in [13]. For the same molecule, the “Minimal Inhibitory Concentration (MIC)” value was 2 and 4 in [14]; 0.25 and 0.5 in assay [15]; 2 in assay [16]; 2 in assay [17]. In addition, in assay [6], the “antimicrobial / antibacterial activity (in words)” value is given as “have antimicrobial activity”.

As for `CC[P+](CC)(CC)[Au-][c]1nn[nH]c1COC(=O)NCC(=O)O` [TMB18], the “Minimal Inhibitory Concentration (MIC)” value in assay [1] was ≤0.06; in [2], 0.125; in assay [3] it was 0.25 and 0.5; in assay [4], ≤0.06; in [5] it was >8; in assay [7], 0.25. The “Minimal Inhibitory Concentration (MIC)” value in assay [8] is reported as 0.5; in [9] it was ≤0.06; in assay [10] it was 0.125; in assay [11] it was 0.125; in assay [12] it was ≤0.06; in assay [13], ≤0.06. Moreover, the “Minimal Inhibitory Concentration (MIC)” value is 0.25 and 0.5 in [14]; 0.125 in [15]; 0.25 in assay [16]; 0.25 in assay [17]. Besides, in assay [6], the “antimicrobial / antibacterial activity (in words)” value was “have antimicrobial activity”.

`CC[P+](CC)(CC)[Au-][c]1nn[nH]c1COC(=O)NC(C(=O)O)c1ccc(O)cc1` (stereo not drawn) [TMB26]: the “Minimal Inhibitory Concentration (MIC)” value in [1] was 0.125; in [2] it was 0.125; in assay [3], 0.25; in assay [4] it was ≤0.06; in [5], >8; in assay [7] it was 0.25. In addition, the “Minimal Inhibitory Concentration (MIC)” value in [8] is listed as 0.5; in [9], ≤0.06; in [10], 0.125; in assay [11] it was 0.25; in [12], ≤0.06; in assay [13], ≤0.06. Also, the “Minimal Inhibitory Concentration (MIC)” value in assay [14] amounted to 0.5; in assay [15], 0.125; in [16], 0.25; in [17] it was 0.5. Besides, the “antimicrobial / antibacterial activity (in words)” value in [6] was “have antimicrobial activity”.
